Values quoted from earlier work in patent US8057811B2 (Douglas Pharmaceuticals Limited, priority 2003, dated 2011).

- solubility in water: practically insoluble in water
SMILES: CN1CCN(C2=Nc3cc(Cl)ccc3Nc3ccccc32)CC1 [Clozapine]
